According to PubChem BioAssay AID330 (DTP/NCI, 2004):
“And” between values parts separate entries of the source, which are not always exact repeats. Equal values may be shown once. Inconclusive results and toxic doses are left out. How the source made its calls: active means survival T/C of 150% or more; inactive means T/C below 125% in these data.

Tested on: P388 leukemia ip, CD2F1 mice, survival T/C
Experiment: NCI In Vivo Anticancer Drug Screen. Data for tumor model P388 Leukemia (intraperitoneal) in CD2F1 (CDF1) mice
Conditions: endpoint: median survival time, higher = longer survival
Procedure, shortened: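 Mice carrying the transplanted tumor received test compound or vehicle. Survival was recorded in each group, and the value is the treated-group measurement divided by that of the vehicle-treated control group.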

[1] = dose: 12.5 mg/kg/injection, schedule: Q01DX009 (ip), vehicle: saline
[2] = dose: 25.0 mg/kg/injection, schedule: Q01DX009 (ip), vehicle: saline
[3] = dose: 50.0 mg/kg/injection, schedule: Q01DX009 (ip), vehicle: saline
[4] = dose: 50.0 mg/kg/injection, schedule: Q01DX009 (ip), vehicle: suspension in saline
[5] = dose: 100.0 mg/kg/injection, schedule: Q01DX009 (ip), vehicle: saline
[6] = dose: 60.0 mg/kg/injection, schedule: Q01DX005 (ip), vehicle: saline with Tween-80
[7] = dose: 120.0 mg/kg/injection, schedule: Q01DX005 (ip), vehicle: saline with Tween-80
[8] = dose: 50.0 mg/kg/injection, schedule: Q01DX005 (ip), vehicle: Klucel (hydroxypropylcellulose) (HPC)
[9] = dose: 100.0 mg/kg/injection, schedule: Q01DX005 (ip), vehicle: Klucel (hydroxypropylcellulose) (HPC)
[10] = dose: 200.0 mg/kg/injection, schedule: Q01DX005 (ip), vehicle: Klucel (hydroxypropylcellulose) (HPC)
[11] = dose: 12.5 mg/kg/injection, schedule: Q01DX009 (ip), vehicle: saline with Tween-80
[12] = dose: 50.0 mg/kg/injection, schedule: Q01DX005 (ip), vehicle: saline with Tween-80
[13] = dose: 100.0 mg/kg/injection, schedule: Q01DX005 (ip), vehicle: saline with Tween-80
[14] = dose: 200.0 mg/kg/injection, schedule: Q01DX005 (ip), vehicle: saline with Tween-80
[15] = dose: 100.0 mg/kg/injection, schedule: Q01DX001 (ip), vehicle: saline
[16] = dose: 200.0 mg/kg/injection, schedule: Q01DX001 (ip), vehicle: saline
[17] = dose: 400.0 mg/kg/injection, schedule: Q01DX001 (ip), vehicle: saline
[18] = dose: 30.0 mg/kg/injection, schedule: Q01DX005 (ip), vehicle: saline with Tween-80

Measured: T/C

O=[N+]([O-])c1ccc(/C(=C/c2ccccc2)S(=O)(=O)C(Cl)(Cl)Cl)o1
inactive: [1] 102 % of control and 97 % of control | [2] 104 % of control and 92 % of control | [3] 104 % of control and 92 % of control | [4] 100 % of control | [5] 101 % of control and 112 % of control

CCOC(=O)c1nnc2cc(-c3ccccc3)nn2c1-c1ccccc1
inactive: [6] 101 % of control | [7] 95 % of control

Cc1ccc(S(=O)(=O)C(C#N)(Cc2c[nH]c3ccccc23)Cc2c[nH]c3ccccc23)cc1
inactive: [8] 107 % of control | [9] 101 % of control | [10] 98 % of control

O=C(NS(=O)(=O)c1ccc(Cl)cc1)c1ccccc1
inactive: [11] 102 % of control and 91 % of control | dose: 25.0 mg/kg/injection, schedule: Q01DX009 (ip), vehicle: saline with Tween-80 106 % of control | dose: 50.0 mg/kg/injection, schedule: Q01DX009 (ip), vehicle: saline with Tween-80 100 % of control and 94 % of control

C[C@H]1C/C=C/[C@H]2[C@@H]3O[C@]3(C)[C@@H](C)[C@H]3[C@H](Cc4ccccc4)NC(=O)[C@]32OC(=O)O/C=C/[C@@](C)(O)C1=O
inactive: dose: 1.25 mg/kg/injection, schedule: Q01DX009 (ip), vehicle: Klucel (hydroxypropylcellulose) (HPC) 99 % of control | dose: 2.5 mg/kg/injection, schedule: Q01DX009 (ip), vehicle: Klucel (hydroxypropylcellulose) (HPC) 94 % of control | dose: 5.0 mg/kg/injection, schedule: Q01DX009 (ip), vehicle: Klucel (hydroxypropylcellulose) (HPC) 97 % of control | dose: 10.0 mg/kg/injection, schedule: Q01DX009 (ip), vehicle: Klucel (hydroxypropylcellulose) (HPC) 88 % of control

CC1(C)Cc2c(nc3ccccc3c2C(N)=O)-c2ccccc21
inactive: [8] 88 % of control | [9] 88 % of control | [10] 88 % of control

CNc1nc(NC)nc(NC)n1
inactive: [1] 95 % of control | [2] 104 % of control | [3] 95 % of control | [5] 93 % of control

C=CCSc1nc2ccc(NC(C)=O)cc2s1
inactive: dose: 6.25 mg/kg/injection, schedule: Q01DX009 (ip), vehicle: Klucel (hydroxypropylcellulose) (HPC) 104 % of control | dose: 12.5 mg/kg/injection, schedule: Q01DX009 (ip), vehicle: Klucel (hydroxypropylcellulose) (HPC) 108 % of control | dose: 25.0 mg/kg/injection, schedule: Q01DX009 (ip), vehicle: Klucel (hydroxypropylcellulose) (HPC) 94 % of control

N=C(N)c1ccc(SCCCCCSc2ccc(C(=N)N)cc2)cc1
inactive: dose: 3.13 mg/kg/injection, schedule: Q01DX009 (ip), vehicle: saline with Tween-80 117 % of control | dose: 6.25 mg/kg/injection, schedule: Q01DX009 (ip), vehicle: saline with Tween-80 124 % of control | [11] 119 % of control

CCCCCCC1(O)OC(=O)C(C)=C1C (stereo unspecified)
inactive: dose: 12.5 mg/kg/injection, schedule: Q04DX003 (ip), vehicle: saline with Tween-80 110 % of control | dose: 25.0 mg/kg/injection, schedule: Q04DX003 (ip), vehicle: saline with Tween-80 94 % of control | dose: 50.0 mg/kg/injection, schedule: Q04DX003 (ip), vehicle: saline with Tween-80 94 % of control

Cc1nc2c(c(-c3ccc(Cl)cc3)n1)Cc1c(ccc3ccccc13)O2
inactive: [3] 107 % of control and 95 % of control | [5] 100 % of control | dose: 200.0 mg/kg/injection, schedule: Q01DX009 (ip), vehicle: saline 100 % of control and 94 % of control

CCOC(=O)CC(=O)c1ccoc1
inactive: [12] 110 % of control | [13] 105 % of control | [14] 110 % of control

Cn1[nH]c(C(C)(C)O)cc1=O
inactive: [15] 107 % of control | [16] 97 % of control | [17] 101 % of control

Cc1cc(O)cc2c1c(=O)c1ccccc1n2C
inactive: [6] 100 % of control | [7] 100 % of control | dose: 240.0 mg/kg/injection, schedule: Q01DX005 (ip), vehicle: saline with Tween-80 96 % of control

COC(=O)C1=C/C=C\CN(C(c2ccccc2)c2ccccc2)/C=C\1C(=O)OC
inactive: [4] 100 % of control | [15] 100 % of control | dose: 100.0 mg/kg/injection, schedule: Q01DX009 (ip), vehicle: suspension in saline 89 % of control | [16] 100 % of control | dose: 200.0 mg/kg/injection, schedule: Q01DX009 (ip), vehicle: suspension in saline 95 % of control | [17] 97 % of control | dose: 400.0 mg/kg/injection, schedule: Q01DX009 (ip), vehicle: suspension in saline 104 % of control

Cc1ccc(/C=N/N=c2/sc3ccccc3n2CC(=O)O)cc1
inactive: dose: 100.0 mg/kg/injection, schedule: Q01DX001 (ip), vehicle: saline with Tween-80 98 % of control | dose: 200.0 mg/kg/injection, schedule: Q01DX001 (ip), vehicle: saline with Tween-80 92 % of control | dose: 400.0 mg/kg/injection, schedule: Q01DX001 (ip), vehicle: saline with Tween-80 89 % of control

CCN(CC)c1ncnc2c1ncn2Cc1ccc(C(=O)OC)cc1
inactive: [12] 100 % of control | [13] 100 % of control | [14] 94 % of control

CSc1nc(NC2OCC(O)C(O)C2O)c(C=O)c(=O)[nH]1 (stereo unspecified)
inactive: dose: 15.0 mg/kg/injection, schedule: Q01DX005 (ip), vehicle: saline with Tween-80 97 % of control | [18] 109 % of control | [6] 95 % of control

CSCNC(=S)Nc1ccc(Cl)cc1
inactive: dose: 50.0 mg/kg/injection, schedule: Q01DX009 (ip), vehicle: Klucel (hydroxypropylcellulose) (HPC) 94 % of control

Cn1cc/c(=N\N=c2/ccn(C)c3ccccc23)c2ccccc21
inactive: dose: 25.0 mg/kg/injection, schedule: Q04DX002 (ip), vehicle: saline 101 % of control | dose: 50.0 mg/kg/injection, schedule: Q04DX002 (ip), vehicle: saline 104 % of control | dose: 100.0 mg/kg/injection, schedule: Q04DX002 (ip), vehicle: saline 99 % of control and 103 % of control

COC(=O)/C=C\C1(CC(C)C)N=C(c2ccccc2)OC1=O (stereo unspecified)
inactive: [12] 104 % of control | [13] 95 % of control | [14] 104 % of control

CCCCOC(=O)N(CCCl)N=O
inactive: dose: 1.25 mg/kg/injection, schedule: Q01DX009 (ip), vehicle: saline with Tween-80 119 % of control | dose: 2.5 mg/kg/injection, schedule: Q01DX009 (ip), vehicle: saline with Tween-80 108 % of control | dose: 5.0 mg/kg/injection, schedule: Q01DX009 (ip), vehicle: saline with Tween-80 98 % of control

COc1ccc(C2CC(=O)CC2c2ccc(OC)cc2)cc1 (stereo unspecified)
inactive: dose: 50.0 mg/kg/injection, schedule: Q01DX001 (ip), vehicle: Klucel (hydroxypropylcellulose) (HPC) 99 % of control | dose: 100.0 mg/kg/injection, schedule: Q01DX001 (ip), vehicle: Klucel (hydroxypropylcellulose) (HPC) 100 % of control | dose: 200.0 mg/kg/injection, schedule: Q01DX001 (ip), vehicle: Klucel (hydroxypropylcellulose) (HPC) 100 % of control

COc1cc(O)cc2c1CCC(c1ccccc1)O2 (stereo unspecified)
inactive: dose: 1.8 mg/kg/injection, schedule: Q01DX005 (ip), vehicle: Klucel + Tween-80 107 % of control | dose: 3.5 mg/kg/injection, schedule: Q01DX005 (ip), vehicle: Klucel + Tween-80 107 % of control | dose: 7.0 mg/kg/injection, schedule: Q01DX005 (ip), vehicle: Klucel + Tween-80 97 % of control | dose: 14.0 mg/kg/injection, schedule: Q01DX005 (ip), vehicle: Klucel + Tween-80 100 % of control

Cc1ccc2c(c1)C1(SC(C)C(=O)N1c1ccc(Cl)cc1)C(=O)N2 (stereo unspecified)
inactive: [18] 103 % of control | [6] 114 % of control and 121 % of control | [7] 119 % of control
